{"source": "ChEMBL document CHEMBL3044763", "about": "“Inhibitory Activities of Rhodanine Derivatives on Plant Growth” (Biosci Biotechnol Biochem, 1996)", "key": {"[1]": {"tested_on": "Brassica rapa subsp. oleifera", "experiment": "Growth inhibition of Brassica rapa subsp. oleifera assessed as root growth at 3 x 10^-4 M after 7 days", "format": "functional"}, "[2]": {"tested_on": "Brassica rapa subsp. oleifera", "experiment": "Growth inhibition of Brassica rapa subsp. oleifera assessed as chlorophyll b level at 1 x 10^-4 M after 7 days", "format": "functional", "design": "scale not given: the % may be the effect or the level left"}, "[3]": {"experiment": "Toxicity in Mus musculus ddY (mouse) assessed as mortality at 325 mg/kg, ip after 2 days", "format": "organism-based", "design": "dose 325 mg/kg, route intraperitoneal", "conditions": "in vivo"}, "[4]": {"experiment": "Toxicity in Mus musculus ddY (mouse) assessed as mortality at 300 mg/kg, ip after 3 days", "format": "organism-based", "design": "dose 300 mg/kg, route intraperitoneal", "conditions": "in vivo"}, "[5]": {"experiment": "Toxicity in Mus musculus ddY (mouse) assessed as mortality at 300 mg/kg, ip after 6 days", "format": "organism-based", "design": "dose 300 mg/kg, route intraperitoneal", "conditions": "in vivo"}, "[6]": {"experiment": "Toxicity in Mus musculus ddY (mouse) assessed as mortality at 400 mg/kg, ip after 1 day", "format": "organism-based", "design": "dose 400 mg/kg, route intraperitoneal", "conditions": "in vivo"}, "[7]": {"tested_on": "Brassica rapa subsp. oleifera", "experiment": "Growth inhibition of Brassica rapa subsp. oleifera assessed as root growth at 5 x 10^-5 M after 7 days", "format": "functional"}, "[8]": {"experiment": "Toxicity in Mus musculus ddY (mouse) assessed as mortality at 300 mg/kg, ip after 4 days", "format": "organism-based", "design": "dose 300 mg/kg, route intraperitoneal", "conditions": "in vivo"}, "[9]": {"experiment": "Toxicity in Mus musculus ddY (mouse) assessed as mortality at 375 mg/kg, ip after 6 days", "format": "organism-based", "design": "dose 375 mg/kg, route intraperitoneal", "conditions": "in vivo"}, "[10]": {"experiment": "Toxicity in Mus musculus ddY (mouse) assessed as mortality at 350 mg/kg, ip after 5 days", "format": "organism-based", "design": "dose 350 mg/kg, route intraperitoneal", "conditions": "in vivo"}, "[11]": {"experiment": "Toxicity in Mus musculus ddY (mouse) assessed as mortality at 350 mg/kg, ip after 6 days", "format": "organism-based", "design": "dose 350 mg/kg, route intraperitoneal", "conditions": "in vivo"}, "[12]": {"experiment": "Toxicity in Mus musculus ddY (mouse) assessed as mortality at 400 mg/kg, ip after 2 days", "format": "organism-based", "design": "dose 400 mg/kg, route intraperitoneal", "conditions": "in vivo"}, "[13]": {"experiment": "Toxicity in Mus musculus ddY (mouse) assessed as mortality at 400 mg/kg, ip after 7 days", "format": "organism-based", "design": "dose 400 mg/kg, route intraperitoneal", "conditions": "in vivo"}, "[14]": {"experiment": "Toxicity in Mus musculus ddY (mouse) assessed as mortality at 375 mg/kg, ip after 1 day", "format": "organism-based", "design": "dose 375 mg/kg, route intraperitoneal", "conditions": "in vivo"}, "[15]": {"tested_on": "Brassica rapa subsp. oleifera", "experiment": "Growth inhibition of Brassica rapa subsp. oleifera assessed as chlorophyll a level at 3 x 10^-4 M after 7 days", "format": "functional", "design": "scale not given: the % may be the effect or the level left"}, "[16]": {"experiment": "Toxicity in Mus musculus ddY (mouse) assessed as mortality at 300 mg/kg, ip after 1 day", "format": "organism-based", "design": "dose 300 mg/kg, route intraperitoneal", "conditions": "in vivo"}, "[17]": {"tested_on": "Brassica rapa subsp. oleifera", "experiment": "Growth inhibition of Brassica rapa subsp. oleifera assessed as total chlorophyll level at 5 x 10^-5 M after 7 days", "format": "functional", "design": "scale not given: the % may be the effect or the level left"}, "[18]": {"tested_on": "Brassica rapa subsp. oleifera", "experiment": "Growth inhibition of Brassica rapa subsp. oleifera assessed as chlorophyll a level at 3 x 10^-5 M after 7 days", "format": "functional", "design": "scale not given: the % may be the effect or the level left"}, "[19]": {"experiment": "Toxicity in Mus musculus ddY (mouse) assessed as mortality at 300 mg/kg, ip after 2 days", "format": "organism-based", "design": "dose 300 mg/kg, route intraperitoneal", "conditions": "in vivo"}, "[20]": {"experiment": "Toxicity in ip dosed Mus musculus ddY (mouse) assessed as mortality after 1 to 7 days", "format": "organism-based", "conditions": "in vivo"}, "[21]": {"experiment": "Toxicity in Mus musculus ddY (mouse) assessed as mortality at 375 mg/kg, ip after 7 days", "format": "organism-based", "design": "dose 375 mg/kg, route intraperitoneal", "conditions": "in vivo"}, "[22]": {"tested_on": "Brassica rapa subsp. oleifera", "experiment": "Growth inhibition of Brassica rapa subsp. oleifera assessed as chlorophyll b level at 3 x 10^-4 M after 7 days", "format": "functional", "design": "scale not given: the % may be the effect or the level left"}, "[23]": {"experiment": "Toxicity in Mus musculus ddY (mouse) assessed as mortality at 350 mg/kg, ip after 7 days", "format": "organism-based", "design": "dose 350 mg/kg, route intraperitoneal", "conditions": "in vivo"}, "[24]": {"experiment": "Toxicity in Mus musculus ddY (mouse) assessed as mortality at 400 mg/kg, ip after 4 days", "format": "organism-based", "design": "dose 400 mg/kg, route intraperitoneal", "conditions": "in vivo"}, "[25]": {"experiment": "Toxicity in Mus musculus ddY (mouse) assessed as mortality at 275 mg/kg, ip after 3 days", "format": "organism-based", "design": "dose 275 mg/kg, route intraperitoneal", "conditions": "in vivo"}, "[26]": {"experiment": "Toxicity in Mus musculus ddY (mouse) assessed as mortality at 275 mg/kg, ip after 5 days", "format": "organism-based", "design": "dose 275 mg/kg, route intraperitoneal", "conditions": "in vivo"}, "[27]": {"tested_on": "Brassica rapa subsp. oleifera", "experiment": "Growth inhibition of Brassica rapa subsp. oleifera assessed as chlorophyll b level at 5 x 10^-5 M after 7 days", "format": "functional", "design": "scale not given: the % may be the effect or the level left"}, "[28]": {"experiment": "Toxicity in Mus musculus ddY (mouse) assessed as mortality at 325 mg/kg, ip after 1 day", "format": "organism-based", "design": "dose 325 mg/kg, route intraperitoneal", "conditions": "in vivo"}, "[29]": {"experiment": "Toxicity in Mus musculus ddY (mouse) assessed as mortality at 275 mg/kg, ip after 2 days", "format": "organism-based", "design": "dose 275 mg/kg, route intraperitoneal", "conditions": "in vivo"}, "[30]": {"experiment": "Toxicity in Mus musculus ddY (mouse) assessed as mortality at 350 mg/kg, ip after 4 days", "format": "organism-based", "design": "dose 350 mg/kg, route intraperitoneal", "conditions": "in vivo"}}}
{"smiles": "O=C1CSC(=S)N1", "note": "[RHODANINE]", "values": [{"measurement": "Activity", "setting": "[1]", "value": 11.3, "unit": "mm"}, {"measurement": "Activity", "setting": "[2]", "value": 2.41, "unit": "%"}, {"measurement": "mortality at 48 h", "setting": "[3]", "value": 80, "unit": "%"}, {"measurement": "mortality at 72 h", "setting": "[4]", "value": 40, "unit": "%"}, {"measurement": "mortality at 144 h", "setting": "[5]", "value": 40, "unit": "%"}, {"measurement": "mortality at 24 h", "setting": "[6]", "value": 80, "unit": "%"}, {"measurement": "Root length", "setting": "[7]", "value": 42.5, "unit": "mm"}, {"measurement": "mortality at 96 h", "setting": "[8]", "value": 40, "unit": "%"}, {"measurement": "mortality at 144 h", "setting": "[9]", "value": 100, "unit": "%"}, {"measurement": "mortality at 120 h", "setting": "[10]", "value": 80, "unit": "%"}, {"measurement": "mortality at 144 h", "setting": "[11]", "value": 80, "unit": "%"}, {"measurement": "mortality at 48 h", "setting": "[12]", "value": 100, "unit": "%"}, {"measurement": "mortality at 168 h", "setting": "[13]", "value": 100, "unit": "%"}, {"measurement": "mortality at 24 h", "setting": "[14]", "value": 80, "unit": "%"}, {"measurement": "Activity", "setting": "[15]", "value": 2.09, "unit": "%"}, {"measurement": "mortality at 24 h", "setting": "[16]", "value": 0, "unit": "%"}, {"measurement": "Activity", "setting": "[17]", "value": 19.17, "unit": "%"}, {"measurement": "Activity", "setting": "[18]", "value": 14.1, "unit": "%"}, {"measurement": "mortality at 48 h", "setting": "[19]", "value": 40, "unit": "%"}, {"measurement": "LD50", "setting": "[20]", "value": 311, "unit": "mg/kg"}, {"measurement": "mortality at 168 h", "setting": "[21]", "value": 100, "unit": "%"}, {"measurement": "Activity", "setting": "[22]", "value": 1.44, "unit": "%"}, {"measurement": "mortality at 168 h", "setting": "[23]", "value": 80, "unit": "%"}, {"measurement": "mortality at 96 h", "setting": "[24]", "value": 100, "unit": "%"}, {"measurement": "mortality at 72 h", "setting": "[25]", "value": 0, "unit": "%"}, {"measurement": "mortality at 120 h", "setting": "[26]", "value": 0, "unit": "%"}, {"measurement": "Activity", "setting": "[27]", "value": 5.08, "unit": "%"}, {"measurement": "mortality at 24 h", "setting": "[28]", "value": 40, "unit": "%"}, {"measurement": "mortality at 48 h", "setting": "[29]", "value": 0, "unit": "%"}, {"measurement": "mortality at 96 h", "setting": "[30]", "value": 80, "unit": "%"}]}
